Measured values taken from patent publication US20220184008A1, “MODULATORS OF INTRACELLULAR CHLORIDE CONCENTRATION” (FONDAZIONE ISTITUTO ITALIANO DI TECNOLOGIA, priority 2019, published 2022).

Assays:
[1] = target: T1, NKCC2 (Homo sapiens, UniProt Q13621); test: Thallium-based assay in NKCC2-transfected HEK293 cells; type: cell-based; conditions: 10 μM; NKCC2-transfected HEK293; Table 2
T1 construct: expressed in transfected cells; host or cells: HEK293
T1 sequence (Q13621 1-1099): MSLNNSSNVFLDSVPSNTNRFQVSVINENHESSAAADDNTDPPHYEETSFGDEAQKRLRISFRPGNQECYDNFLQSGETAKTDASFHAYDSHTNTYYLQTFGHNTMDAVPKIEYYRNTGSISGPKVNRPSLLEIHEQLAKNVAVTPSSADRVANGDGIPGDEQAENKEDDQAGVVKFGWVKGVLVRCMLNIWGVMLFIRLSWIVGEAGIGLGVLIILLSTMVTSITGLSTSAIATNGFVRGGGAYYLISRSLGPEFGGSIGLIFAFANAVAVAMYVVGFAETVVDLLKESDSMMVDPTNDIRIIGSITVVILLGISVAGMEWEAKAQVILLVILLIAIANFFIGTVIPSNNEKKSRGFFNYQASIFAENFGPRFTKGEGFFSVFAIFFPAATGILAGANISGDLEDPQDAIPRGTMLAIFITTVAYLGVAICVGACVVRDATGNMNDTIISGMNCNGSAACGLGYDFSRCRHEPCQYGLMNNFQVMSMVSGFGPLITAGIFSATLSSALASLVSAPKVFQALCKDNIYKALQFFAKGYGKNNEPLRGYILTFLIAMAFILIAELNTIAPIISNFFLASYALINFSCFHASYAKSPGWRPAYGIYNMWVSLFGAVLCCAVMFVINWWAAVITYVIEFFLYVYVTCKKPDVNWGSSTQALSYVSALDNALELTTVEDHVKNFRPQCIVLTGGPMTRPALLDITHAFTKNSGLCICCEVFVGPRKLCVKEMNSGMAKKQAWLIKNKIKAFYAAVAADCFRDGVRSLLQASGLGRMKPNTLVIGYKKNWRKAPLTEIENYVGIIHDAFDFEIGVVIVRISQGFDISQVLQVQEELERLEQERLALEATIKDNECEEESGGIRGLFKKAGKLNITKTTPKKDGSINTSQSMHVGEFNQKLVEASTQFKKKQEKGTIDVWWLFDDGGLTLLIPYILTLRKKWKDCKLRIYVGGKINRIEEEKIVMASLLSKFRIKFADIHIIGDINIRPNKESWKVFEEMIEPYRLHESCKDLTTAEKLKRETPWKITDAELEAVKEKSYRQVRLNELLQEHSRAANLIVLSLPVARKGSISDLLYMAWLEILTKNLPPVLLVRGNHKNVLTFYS
Source text: The Thallium-based assay is a standard assay used to measure activity of potassium transporters, like NKCC2 which is a sodium potassium and chloride co-transporter. The assay consists on the monitoring of the cells upon the application of thallium (which mimic K^+) and consequently NaCl, which entering into cells by NKCC2, activated by the presence of the chloride ions, binds the fluorescent dye, thus determining a fluorescence increase. This assay involves parallel testing in 96 wells for a quick and easy drug screening. In detail, kidney epithelial cells (HEK293) were transfected with NKCC2 transporters, or a mock construct (control). After two days, the cells were loaded with a thallium-sensitive fluorescent dye in a Cl-free medium. After 1 hour of incubation, the inhibitory activity of bumetanide and furosemide (as positive controls) and the new compounds by monitoring fluorescence upon application of thallium (to mimic K) and subsequently NaCl were tested. When entering cells by NKCC2 (activated by the presence of Cl), thallium binds the fluorescent dye and increases fluorescence. […] A decreased fluorescence in the mock-transfected cells treated with bumetanide and furosemide was observed. […] This latter result was used to normalize the fluorescence measurements obtained with the assay. In particular, the ΔF/F0 value of the mock-transfected cells (both control and treated) was subtracted from the respective ΔF/F0 value of the cells transfected with the Cl transporters. With this assay, the novel chemical entities were tested for their ability to block NKCC2 (Results in Table 2).
The arrow indicates the addition of thallium (final concentration 2 mM) and NaCl stimulus (135 mM) used to initiate the flux assay. b) Quantification of the effect of bumetanide, furosemide and 3 example compounds (3.8, 3.13, 3.17) in the thallium-based assay on NKCC2-transfected HEK293 cells. Data represents mean±sem from 5 independent experiments, and they are represented as % of the controls. *P<0.05, **P<0.01, ***P<0.001 Kruskal-Wallis Anova (Dunn's Post hoc Test); ###P<0.001 two-tailed unpaired Student t-test.

[2] = tested on: NKCC1; test: Calcium kinetic assay in primary cultures of immature hippocampal neurons; type: cell-based; conditions: 10 μM, immature neurons 3 DIV

CCCCCCNc1ccc(C(=O)O)cc1S(=O)(=O)N(C)C [Compound 3.12, 3-(dimethylsulfamoyl)-4-(hexylamino)benzoic acid]
inhibition at 10 µM [1]: 29%
NKCC1 Inhibition % 10 μM Neurons Calcium kinetic assay ([2]; Table 1): 13%
NKCC1 Inhibition % 10 μM Neurons Calcium kinetic assay ([2]; Table 2): 13%

CCCCNc1ccc(C(=O)O)cc1S(=O)(=O)N(C)C [Compound 3.11, 4-(butylamino)-3-(dimethylsulfamoyl)benzoic acid]
inhibition at 10 µM [1]: 0%
NKCC1 Inhibition % 10 μM Neurons Calcium kinetic assay ([2]; Table 1): 8%
NKCC1 Inhibition % 10 μM Neurons Calcium kinetic assay ([2]; Table 2): 8%

CCCCNc1ccc(C(=O)O)cc1S(=O)(=O)NC [Compound 3.6, 4-(butylamino)-3-(methylsulfamoyl)benzoic acid]
inhibition at 10 µM [1]: 22%
NKCC1 Inhibition % 10 μM Neurons Calcium kinetic assay ([2]; Table 1): 6%
NKCC1 Inhibition % 10 μM Neurons Calcium kinetic assay ([2]; Table 2): 6%

CNS(=O)(=O)c1cc(C(=O)O)ccc1NCCC(C)(C)C [Compound 3.9, 4-(3,3-dimethylbutylamino)-3-(methylsulfamoyl)benzoic acid]
inhibition at 10 µM [1]: 12%
NKCC1 Inhibition % 10 μM Neurons Calcium kinetic assay ([2]; Table 1): 14%
NKCC1 Inhibition % 10 μM Neurons Calcium kinetic assay ([2]; Table 2): 14%

CCCCCCCCNc1ccc(C(=O)O)cc1S(N)(=O)=O [Compound 2.8, 4-(octylamino)-3-sulfamoyl-benzoic acid]
inhibition at 10 µM [1]: 0%
NKCC1 Inhibition % 10 μM Neurons Calcium kinetic assay ([2]; Table 1): 3%
NKCC1 Inhibition % 10 μM Neurons Calcium kinetic assay ([2]; Table 2): 3%

CN(C)S(=O)(=O)c1cc(C(=O)O)ccc1NCCC(C)(C)C [Compound 3.14, 4-(3,3-dimethylbutylamino)-3-(dimethylsulfamoyl)benzoic acid]
inhibition at 10 µM [1]: 0%
NKCC1 Inhibition % 10 μM Neurons Calcium kinetic assay ([2]; Table 1): 11%
NKCC1 Inhibition % 10 μM Neurons Calcium kinetic assay ([2]; Table 2): 11%

CCCCNc1ccc(C(=O)O)cc1S(N)(=O)=O [Compound 2.6, 4-(butylamino)-3-sulfamoyl-benzoic acid]
inhibition at 10 µM [1]: 0%
NKCC1 Inhibition % 10 μM Neurons Calcium kinetic assay ([2]; Table 1): 14%
NKCC1 Inhibition % 10 μM Neurons Calcium kinetic assay ([2]; Table 2): 14%
